The test system of assay [1] is human prostate DU145 cells. Description: MTT based cell proliferation assay, DU145. Here is the method: (§1) MTT [3-(4,5-dimethylthiazol-2-yl)-2,5-diphenyltetrazolium bromide incorporation based cell proliferation assay was performed using standard procedure. […] The assay was carried out according to the instructions provided by the vendor. […] Vehicle control culture wells received only a maximum of 0.5% DMSO. Thereafter, 0.5 mg/ml of MTT reagent was added to each well and the microplate was incubated further for 4 h at 37° C. in presence of 5% CO2. Finally, the cells were solubilized by adding solubilizing solution and allowed to incubate at 37° C. overnight. After complete solubilization of the formazan crystals the absorbance was read at 540 nm in a microplate reader (BioRad, USA).
(§2) The evaluation of cell proliferation inhibitory activities of the compounds was done in two phases—(1) Screening, and (2) half-maximal inhibitory concentration (IC50) determination. In the screening phase, the cells were treated with different concentrations.

Assay [2] has as its system human colorectal carcinoma HT29 cells. Description: MTT based cell proliferation assay, HT29. Here is the method: as §1, §2
Assay [3] deals with human breast carcinoma (estrogen receptor negative) MDA-MB-231 cells. As to the kind of experiment: MTT based cell proliferation assay, MDA-MB-231. On the procedure:
as §1, §2

In assay [4] the test system is human lung carcinoma A549 cells. As to the kind of experiment: MTT based cell proliferation assay, A549. Here is the method:
as §1, §2

Assay [5] concerns human Hepatocellular carcinoma HepG2 cells. As to the kind of experiment: MTT based cell proliferation assay, HepG2. Here is the method:
as §1, §2

In assay [6] the test system is human cervical carcinoma HeLa cells. As to the kind of experiment: MTT based cell proliferation assay, HeLa. On the procedure:
as §1, §2

Regarding `CN(c1ccc(Cl)cc1)c1ncnc2[se]c3c(c12)CCNC3` [Compound 33], the “more potent than Gefitinib (Iressa) in inhibiting tumor cells proliferation” value in assay [1] (DU145, from IC50 values) is given as 6.8%; in assay [2] (HT29, from IC50 values), 257.8%; in assay [3] (MDA-MB-231, from IC50 values), 122%; in assay [4] (A549, from IC50 values), 101%; in assay [5] (HepG2, from IC50 values), 241%; in assay [6] (from IC50 values), 117%. For the same compound, the IC50 in assay [1] (Homo sapiens, DU-145, 72 h, read-out: Cell proliferation inhibition in DU145 (Prostate carcinoma), IC50) was determined as 29.5 µM; in assay [2] (Homo sapiens, HT-29, 72 h, read-out: Cell proliferation inhibition in HT29 (Colon carcinoma), IC50), 13.1 µM; in assay [3] (Homo sapiens, MDA-MB-231, 72 h, read-out: Cell proliferation inhibition (IC50) in MDA-MB-231 (Breast Carcinoma)), 20.4 µM; in assay [4] (Homo sapiens, A549, 72 h, read-out: Cell proliferation inhibition in A549 (Lung carcinoma), IC50), 28.4 µM; in assay [5] (Homo sapiens, HepG2, 72 h, read-out: Cell proliferation inhibition (IC50) in HepG2 (Hepatocellular Carcinoma)) it was 10.4 µM; in assay [6] (Homo sapiens, 72 h, read-out: Cell proliferation inhibition (IC50) in HeLa (Cervical Carcinoma)) it was 23.1 µM.

The record behind these values is patent US9090633B2, “Substituted 4-(arylamino) selenophenopyrimidine compounds and methods of use thereof” (KASINA LAILA INNOVA PHARMACEUTICALS PRIVATE LIMITED, priority 2010, dated 2013).
